Experimental data from the supplement of paper PMC10307832.

Experiments:
Experiment in all cases: relative viability (nuclei count vs DMSO), 5 days (fraction); higher = more cells survive
[1] = compound: COc1cc2/c(=N/c3ccc(Br)cc3F)nc[nH]c2cc1OCC1CCN(C)CC1 [Vandetanib] + CS(=O)(=O)N1CCN(Cc2cc3nc(-c4cccc5[nH]ncc45)nc(N4CCOCC4)c3s2)CC1 [Pictilisib] (partner 1 µM)
Outline: (§1)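 Each reported value is a median over duplicate plates. It expresses relative viability: treated-well nuclei count divided by vehicle-well nuclei count. Lung cancer cell lines in 1536-well plates were dosed by pin tool a day after seeding, alone with one drug or with a fixed anchor-drug dose plus five library-drug doses (not always all listed) in √10 steps, and nuclei were counted after 5 days.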

[2] = compound: C#Cc1cccc(Nc2ncnc3cc(OC)c(OCCCCCCC(=O)NO)cc23)c1 [CUDC-101] + Cc1nc(NC(=O)N2CCC[C@H]2C(N)=O)sc1-c1ccnc(C(C)(C)C(F)(F)F)c1 [Alpelisib] (partner 2 µM)
Outline: as §1

[3] = compound: C#Cc1cccc(Nc2ncnc3cc(OC)c(OCCCCCCC(=O)NO)cc23)c1 [CUDC-101] + Cc1nc(Nc2ncc(C(=O)Nc3c(C)cccc3Cl)s2)cc(N2CCN(CCO)CC2)n1 [Dasatinib] (partner 0.075 µM)
Outline: as §1

[4] = compound: C#Cc1cccc(Nc2ncnc3cc(OC)c(OCCCCCCC(=O)NO)cc23)c1 [CUDC-101] + C[C@@H](Oc1cc(-c2cnn(C3CCNCC3)c2)cnc1N)c1c(Cl)ccc(F)c1Cl [Crizotinib] (partner 1 µM)
Outline: as §1

Cell Line	relative viability ([1]; first compound 0.02 µM)	relative viability ([1]; first compound 0.06325 µM)	relative viability ([1]; first compound 0.2 µM)	relative viability ([1]; first compound 0.6325 µM)	relative viability ([1]; first compound 2 µM)	relative viability ([2]; first compound 0.01 µM)	relative viability ([2]; first compound 0.03162 µM)	relative viability ([2]; first compound 0.1 µM)	relative viability ([2]; first compound 0.3162 µM)	relative viability ([2]; first compound 1 µM)	relative viability ([3]; first compound 0.01 µM)	relative viability ([3]; first compound 0.03162 µM)	relative viability ([3]; first compound 0.1 µM)	relative viability ([3]; first compound 0.3162 µM)	relative viability ([3]; first compound 1 µM)	relative viability ([4]; first compound 0.01 µM)	relative viability ([4]; first compound 0.03162 µM)	relative viability ([4]; first compound 0.1 µM)	relative viability ([4]; first compound 0.3162 µM)	relative viability ([4]; first compound 1 µM)
201T	0.663	0.648	0.652	0.706	0.692	0.932	0.937	0.926	1.05	0.88	0.578	0.563	0.579	0.591	0.511	1	1.02	0.979	1.06	0.97
A549	0.499	0.419	0.614	0.473	0.412	0.773	0.757	0.605	0.948	0.618						0.855	1	0.927	0.793	0.632
A-427	0.676	0.626	0.762	0.674	0.777	1.15	1.1	1.11	1.02	0.887	0.745	0.659	0.649	0.608	0.389	1.05	0.868	0.773	0.829	0.579
ABC-1	0.794	0.673	0.866	0.664	0.765	1.15	1.07	0.819	0.609	0.572	0.772	0.728	0.543	0.532	0.194	0.941	0.906	0.742	0.44	0.33
BEN	0.576	0.49	0.585	0.646	0.538	1.21	0.887	1.17	0.848	0.737	0.426	0.301	0.346	0.311	0.264	1.04	0.772	0.933	0.809	0.579
CAL-12T	0.436	0.412	0.398	0.398	0.311	1.38	0.984	1.42	1.11	1.21	0.72	0.372	0.346	0.514	0.318	0.67	0.734	0.689	0.701	0.584
Calu-6	0.938	0.9	0.881	0.807	0.907	1.02	0.939	0.986	1	0.763						0.835	0.958	0.745	0.664	0.547
ChaGo-K-1	0.632	0.713	0.619	0.87	0.28						0.571	0.612	0.526	0.539	0.529	1.17	1.14	1.12	1.2	0.924
EBC-1	0.465	0.345	0.404	0.359	0.242	0.796	0.709	0.696	0.721	0.319						0.17	0.182	0.202	0.147	0.127
HCC-44	0.58	0.543	0.556	0.613	0.634	0.641	0.664	0.771	0.781	0.685						0.661	0.712	0.752	0.779	0.748
IA-LM	0.349		0.345	0.405	0.331	0.676	0.769	0.678	0.745	0.388						0.944	0.91	0.868	0.587	0.466
NCI-H522											0.931	0.758	0.928	0.842	0.596					
NCI-H1299	0.788	0.677	0.906	0.674	0.604	1.08	1	1.11	1.06	1.05						0.926	0.957	0.998	0.837	0.934
NCI-H1395	0.687	0.61	0.656	0.697	0.418	0.993	0.998	1.1	1.18	0.823	0.418	0.385	0.438	0.434	0.363					
NCI-H1623											0.561	0.501	0.429	0.676	0.486					
NCI-H1650	0.561	0.511		0.555	0.515						0.302	0.292	0.321	0.324	0.221	0.859	0.782	0.942	0.796	0.595
NCI-H1703	0.244	0.217	0.212	0.211	0.231	0.303		0.322	0.53	0.506						1.07	0.707	0.765	0.712	0.477
NCI-H1793	0.338	0.309	0.27	0.341	0.379	0.796	0.41	0.658	0.627	0.546	0.393	0.371	0.342	0.415	0.371					
NCI-H2342											0.316	0.301	0.325	0.298	0.241					
SW 900											0.455	0.68	0.791	0.602	0.618					
